The numbers were not newly measured in patent US11407830B2, “Methods of treating cancer with anti-PD-1 antibodies” (TESARO, INC., priority 2017, dated 2022), which cites them from elsewhere.

A word on the IC50: it is the concentration that gives 50% inhibition.

For series [1], the system named is non-small-cell lung cancer, melanoma, and renal-cell cancer. The settings on record: Phase I clinical trial.
The test system of series [2] is PARP activity in various cell lines.

Regarding “nivolumab: monoclonal antibody targeting PD-1”, the tumor response result in series [1] is “complete or partial responses”.
Take `NC(=O)c1cccc2cn(-c3ccc([C@@H]4CCCNC4)cc3)nc12` [Niraparib, (3 S)-3-[4-{7-(aminocarbonyl)-2H-indazol-2-yl}phenyl]piperidine]: the IC50 in series [2] (read-out: IC50, PARP activity in cells, hydrogen peroxide DNA damage) was ~4 nM. Moreover, the IC90 in series [2] (read-out: inhibitory concentration at 90% of control (IC90), PARP activity in cells, hydrogen peroxide DNA damage) is ~50 nM.
